The results in this text go back to ChEMBL document CHEMBL5126654, “Cyclopiazonic Acid and Okaramine Analogues, Including Chlorinated Compounds, from Chrysosporium undulatum YT-1” (2022).

In one assay the test system is Bombyx mori. Kind of assay: Insecticidal activity against third instar larvae of Bombyx mori (silkworm) measured after 24 hrs. In kind it is functional.
Another assay concerns Helicoverpa armigera. Kind of assay: Insecticidal activity against third instar larvae of Helicoverpa armigera (cotton bollworms) measured after 24 hrs. In kind it is functional.
A further assay relates to Bacillus subtilis. Kind of assay: Antibacterial activity against Bacillus subtilis measured after 24 hrs by agar diffusion method. In kind it is functional. Background: In agar diffusion tests the substance spreads into inoculated agar from a disc or well.
A further assay has as its system PC12D. Kind of assay: Neuroprotective activity in rat PC12 cells assessed as reduction in 6-OHDA-induced cell death at 40 uM pretreated for 30 mins followed by 6-OHDA stimulation and measured after 24 hrs by MTT assay. In kind it is functional, cell-based. The following applies: time 24.5 hrs. Background: Tetrazolium assays rely on reduction of a dye to a coloured formazan, in cell work by metabolically active cells.

Converted amounts (≈) assume the structure as drawn. The source made the active and inactive calls. The rule behind the calls is not given here.

Turning to `CO[C@@H]1[C@]2(O)c3cc(O)ccc3N3C(C)(C)[C@H](C)[C@]32N2C(=O)/C3=C/c4c([nH]c5cc(Cl)ccc45)C(C)(C)/C=C\N3C(=O)[C@]12O`, the LD50 (commonly the dose expected to kill half of the subjects tested) amounted to 0.61 mg/kg in the assay with Bombyx mori and 0.06 mg/kg in the assay on Helicoverpa armigera. On to `CO[C@@H]1[C@]2(O)c3cc(O)ccc3N3C(C)(C)[C@H](C)[C@]32N2C(=O)/C3=C/c4c([nH]c5ccccc45)C(C)(C)/C=C\N3C(=O)[C@]12O`, for which the results for the LD50 in the assay with Bombyx mori and in the assay with Helicoverpa armigera were 0.07 mg/kg and less than 0.01 mg/kg, respectively. On to `CO[C@@H]1[C@]2(O)c3cc(O)ccc3N3C(C)(C)[C@H](CO)[C@]32N2C(=O)/C3=C/c4c([nH]c5ccccc45)C(C)(C)/C=C\N3C(=O)[C@]12O`, for which the LD50 with Bombyx mori and in the assay on Helicoverpa armigera was more than 100 mg/kg throughout. For `CO[C@@H]1[C@]2(O)c3cc(O)ccc3N3C(C)(C)[C@H](CO)[C@]32N2C(=O)/C3=C/c4c([nH]c5cc(Cl)ccc45)C(C)(C)/C=C\N3C(=O)[C@]12O`, the LD50 with Bombyx mori and with Helicoverpa armigera was more than 100 mg/kg throughout. Turning to `C/C(O)=C1\C(=O)[C@@H]2[C@H]3c4c[nH]c5cc(Cl)cc(c45)[C@@H](O)[C@H]3C(C)(C)N2C1=O`, the minimum inhibitory concentration (MIC) (in general, the lowest concentration found to suppress growth) in the assay on Bacillus subtilis is 6.3 µg/mL (≈ 16.3 µM). `CC(NCCc1ccccc1)=C1C(=O)[C@@H]2[C@H]3c4c[nH]c5cccc(c45)C[C@H]3C(C)(C)N2C1=O` (mixture of isomers): the outcome with PC12D was Active.

As to `C=C(C)[C@H]1Cc2c(ccc3c2O[C@@H]2COc4cc(OC)c(OC)cc4[C@@H]2C3=O)O1` [ROTENONE], the LD50 in the assay on Bombyx mori was 37.8 mg/kg; in the assay on Helicoverpa armigera it was 5.79 mg/kg. As to `CO[C@@H]1[C@]2(O)c3cccc(O)c3N3C(C)(C)[C@H](C)[C@]32N2C(=O)/C3=C/c4c([nH]c5cc(Cl)ccc45)C(C)(C)/C=C\N3C(=O)[C@]12O`, the LD50 in the assay with Bombyx mori was 7.56 mg/kg; in the assay on Helicoverpa armigera, 4.13 mg/kg.
